Results published in PubChem BioAssay (NCI).
“And” between values parts separate entries of the source, which are not always exact repeats. Equal entries are not always repeated.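 Cells were grown in 96-well plates and exposed to each compound for 48 hours at five concentrations; endpoints were interpolated linearly between bracketing concentrations, or set to the highest concentration if not reached. Here, GI50 denotes the concentration required for 50% inhibition of growth. TGI denotes the concentration required for complete inhibition of growth.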

Key:
Assay in all cases: growth of human tumour cells (NCI), 48 h
[1] = tested on: EKVX NSCLC
[2] = tested on: HT29 colon
[3] = tested on: K-562 leukemia
[4] = tested on: LOX IMVI melanoma
[5] = tested on: OVCAR-4 ovarian
[6] = tested on: SK-OV-3 ovarian
[7] = tested on: SN12C renal
[8] = tested on: SNB-19 CNS
[9] = tested on: SNB-75 CNS
[10] = tested on: U251 CNS

SMILES | GI50 [1] | TGI [1] | GI50 [2] | TGI [2] | GI50 [3] [µM] | TGI [3] | GI50 [4] | TGI [4] | GI50 [5] | TGI [5] | GI50 [6] | TGI [6] | GI50 [7] | TGI [7] | GI50 [8] | TGI [8] | GI50 [9] | TGI [9] | GI50 [10] | TGI [10]
C=C1C(=O)O[C@H]2[C@H]1CC/C(Cn1cc(-c3ccccc3C(F)(F)F)nn1)=C\CC[C@@]1(C)O[C@@H]21 | 2.32 µM | 7.12 µM | 1.79 µM | 3.75 µM | 2.4 | 13.1 µM | 1.11 µM | 2.35 µM | 2.77 µM | 9.4 µM | 17.3 µM | 31.2 µM | 2.48 µM | 7.46 µM | 10.8 µM | 25.8 µM | 2.97 µM | 17.5 µM | 1.83 µM | 3.83 µM
O=c1c(-c2ccccc2)coc2cc(OC/C(=N/O)c3ccccc3)ccc12 | 13.4 µM | 48.5 µM | 14.7 µM | 53.2 µM | 11.3 | > 100 µM | 18.4 µM | 37.4 µM | 14.9 µM | 47.2 µM | 25.9 µM | 88.5 µM | 18 µM | 39.9 µM | 23.2 µM | 86.9 µM | 22.9 µM | 79.2 µM | 21.4 µM | 56.1 µM
COc1cccc(NC(=O)/C(Cc2nc3ccccc3nc2C)=N/NC(=O)C[n+]2ccccc2)c1 |  | > 100 µM |  | > 100 µM |  | > 100 µM |  | > 100 µM |  | > 100 µM |  | > 100 µM |  | > 100 µM |  | > 100 µM |  | > 100 µM |  | 39.8 µM
Cc1ccc(O)c(NC(=O)c2ccc(CNc3ccnc(C(F)(F)F)c3)cc2)c1 | 4.04 µM | 34.9 µM | 23.1 µM | > 100 µM | 1.54 | 17.9 µM | 5.64 µM | 31.4 µM | 26.7 µM | > 100 µM | 3.87 µM | 36.7 µM | 4.23 µM | > 100 µM | 6.15 µM | 48 µM | 22.5 µM | 90.3 µM | 23.5 µM | > 100 µM
O=C1C(=Cc2c(O)cc(O)cc2O)C(=O)c2ccccc21 |  | > 100 µM |  | > 56.4 µM |  | > 93.2 µM |  | 29.2 µM |  | > 72.7 µM |  | > 100 µM |  | 37.6 µM |  | > 56.9 µM |  | > 59.7 µM |  | > 57.2 µM
COc1cc2c(cc1OC)/C(=C\c1ccccc1N)C(=O)OC2 |  | 44.2 µM |  | 30.4 µM |  | 16.1 µM |  | 4.18 µM |  | 29 µM |  | 55.7 µM |  | 31.4 µM |  | 32.5 µM |  | 24.9 µM |  | 32.6 µM
CCN(CC)c1ccc(C(=O)c2ccc(N(CC)CC)cc2)cc1 | 1.19 µM | > 70.3 µM | 0.359 µM | 3.78 µM | 0.15 | 10.2 µM | 0.62 µM | 28.3 µM | 2.14 µM | > 100 µM | 0.676 µM | 56.8 µM | 0.787 µM | 35.5 µM | 2.47 µM | > 100 µM | 0.458 µM | > 83.6 µM | 0.504 µM | 23.2 µM
CC(=O)OCC1OC(n2c(-c3ccc(C)cc3)cc(-c3ccccc3)c(C#N)c2=O)C(OC(C)=O)C(OC(C)=O)C1OC(C)=O (stereo not given) |  | > 100 µM |  | > 100 µM |  | > 100 µM |  | > 100 µM |  | > 100 µM |  | > 100 µM |  | > 100 µM |  | > 100 µM |  | > 100 µM |  | > 100 µM
CCOC(=O)c1[nH]c(COC(C)=O)c2c1CCCCCCCCCC2 |  | > 100 µM |  | > 100 µM |  | > 100 µM |  | > 100 µM |  | > 100 µM |  | > 100 µM |  | > 100 µM |  | > 100 µM |  | > 100 µM |  | > 100 µM
Cc1cc(C)c(-n2c(-c3ccc(Br)cc3)cs/c2=N\N=C2C=C(C(C)(C)C)C(=O)C(C(C)(C)C)=C2)c(C)c1 |  | > 100 µM |  | > 100 µM |  | > 100 µM |  | > 100 µM |  | > 100 µM |  | > 100 µM |  | > 100 µM |  | > 100 µM |  | 57.1 µM |  | > 100 µM
COc1ccc(OCC(=O)O)c(C(=O)CCC(=O)O)c1 |  | > 100 µM |  | > 100 µM |  | > 100 µM |  | > 100 µM |  | > 100 µM |  | > 100 µM |  | > 100 µM |  | > 100 µM |  | > 100 µM |  | > 100 µM
O=C1C(=O)c2cccnc2-c2ncccc21 | 0.322 µM | 1.29 µM | 1.04 µM | 2.33 µM | 0.211 | 0.848 µM | 0.06 µM | 0.36 µM | 0.139 µM | 0.268 µM | 1.16 µM | 2.98 µM | 0.25 µM | 0.848 µM | 0.236 µM | 1.1 µM | 0.123 µM | 1.4 µM | 0.131 µM | 0.674 µM
O=C1CCc2c(sc3[nH]c(=S)n(Cc4ccc(Cl)cc4)c(=O)c23)C1 | 0.544 µM | > 100 µM | 3.27 µM | > 100 µM | 0.324 | > 100 µM | 0.41 µM | 5.4 µM | 0.388 µM | 28.2 µM | 2.86 µM | 8.92 µM | 0.384 µM | > 84.7 µM | 0.385 µM | > 100 µM | 0.387 µM | > 81.4 µM | 0.377 µM | 18 µM
CC(=O)C1=C(O)CC2CC3c4[nH]c5ccccc5c4CCN3CC2C1 (stereo not given) |  | > 100 µM |  | > 100 µM |  | > 100 µM |  | > 100 µM |  | > 100 µM |  | > 100 µM |  | > 100 µM |  | > 100 µM |  | > 100 µM |  | > 100 µM
Cc1cccc(NC(=O)c2cccc([N+](=O)[O-])c2O)c1C |  | > 100 µM |  | > 100 µM |  | > 31.6 µM |  | > 72.8 µM |  | > 100 µM |  | > 81.9 µM |  | > 100 µM |  | > 100 µM |  | 81.1 µM |  | > 100 µM
Cc1cn(-c2cc(NC(=O)c3ccc(C)c(Nc4nccc(-c5cccnc5)n4)c3)cc(C(F)(F)F)c2)cn1 | 6.23 µM and 5.98 µM | > 10 µM and 26.1 µM | 1.7 µM and 1.94 µM | > 10 µM and 9.13 µM | 2.15 | > 10 µM and 1.03 µM | 2.77 µM and 5.57 µM | > 10 µM and 26.5 µM | 5.15 µM and 2.39 µM | > 10 µM and 7.32 µM | > 10 µM and 3.91 µM | > 10 µM and 11.3 µM | > 10 µM and 13 µM | > 10 µM and 29 µM | > 10 µM and 13.1 µM | > 10 µM and 32.7 µM | 8.04 µM and 3.47 µM | > 10 µM and 11.5 µM | 2.97 µM and 2.47 µM | > 10 µM and 7.32 µM
